US8895236B2, “Composition for cryopreservation comprising nicotinamide, glycerol and red blood cells” (priority 1998, dated 2014)

What was measured:
red blood cells [1] = settings: frozen storage at −80° C., glycerol washed out prior to transfusion; typical level; cited from earlier work
red blood cells [2] = assay: Thaw and overall hemolysis, glycerol-based cryoprotectant with biochemical stabilization (Example 4); type: cell-based, human; settings: for % Hemolysis Thaw: frozen −80° C., thawed 37° C. water bath 10 minutes; for % Hemolysis Overall: overall hemolysis following the wash with 12%, 1.6% and 0.9% saline
Description: An aliquot of blood was transferred to a PVC storage bag, to which any experimental agents were added. Glycerol was then added until the desired final glycerol was achieved. This unit was frozen at −80° C., stored and thawed in a 37° C. water bath for 10 minutes. […] The values indicate the percent hemolysis in the thawed sample, the overall amount of hemolysis following the wash and the is percent of residual free hemoglobin in the final sample. Hemolysis is calculated as the ratio of free hemoglobin to the total hemoglobin content in the sample.

red blood cells [3] = assay: Thaw, overall and final hemolysis, glycerol based cryoprotectant with additives (Example 2); type: cell-based, human; settings: additives in 20% glycerol; for Hemolysis (%) Overall: after glycerol removal by serial dilution with saline; for Hemolysis (%) Final (residual free hemoglobin): final residual free hemoglobin after wash; for Hemolysis (%) Thaw: frozen −80° C. 2-7 days, thawed 37° C. 10 minutes
Description: Fifty ml of packed red blood cells were added to a PVC freezing bag. Isotonic saline or preservative solution containing the additional biochemical reagents of interest was mixed with the red blood cells. The samples were treated as follows prior to freezing at −80° C.: • 1. 40% Glycerol • 2. 20% Glycerol • 3. Nicotinamide • 4.
A volume of Glycerolyte 57 (Fenwall) was added slowly until the final concentration of glycerol was achieved. The total volume of all additions was 50 ml, making the final volume of the red blood cell unit 100 ml. The PVC bags were frozen at −80° C. for 2-7 days and thawed by submersion in a 37° C. water bath for 10 minutes. The level of thaw hemolysis was determined as the ratio of free hemoglobin to total hemoglobin. Additionally, the glycerol was removed from the thawed red blood cell units by serial dilution with saline similar to blood bank protocols. The overall hemolysis and the final residual free hemoglobin levels were also determined.

red blood cells [4] = assay: Thaw hemolysis of red blood cells frozen at −80° C. with reduced glycerol (Example 1); type: cell-based, human; settings: frozen at −80° C. 2-7 days, thawed 37° C. water bath 10 minutes; ratio of free to total hemoglobin
Description: A significant percentage of the hemolytic damage is shown to be reversed by the addition of a preservative solution containing adenine, glutamine, sodium chloride, mannitol, and dextrose, with the essential additive being dextrose, and final concentrations of 5 mM pentoxifylline and 25 μg/ml flurbiprofen in DMSO as a carrier.
Specifically, 50 ml of packed red blood cells was added to a PVC freezing bag with a maximum volume of 150 ml. Isotonic saline or preservative solution containing the additional biochemical reagents pentoxifylline and flurbiprofen was mixed with the red blood cells. A volume of Glycerolyte 57 (Fenwall) was added slowly until the final concentration of glycerol was achieved. The total volume of all additions was 50 ml, making the final […] of the red blood cell unit 100 ml. […] The levels of thaw hemolysis are shown below in TABLE 1.

red blood cells [5] = assay: Thaw and overall hemolysis, 10% glycerol reduced cryopreservation model (Example 3); type: cell-based, human; settings: 10% (w/v) glycerol base
Description: The model used is a reduced glycerol cryopreservation system. 10% (w/v) glycerol is added to the unit prior to freezing at −80° C.
A single unit of packed red blood cells in ADSOL was obtained using standard blood banking protocols. […] From this red blood cell unit 50 ml of red cells was placed into each of 3 PVC freezing bags having a maximum volume of 150 ml. An equal volume (50 ml) was added to each of the bags composed of the above preservation solution and the experimental conditions. The final composition of the first bag was 10% (w/v) glycerol. […] The overall hemolysis was also determined.

red blood cells [6] = test system: red blood cells
Description: Additionally, the glycerol was removed from the thawed red blood cell units by serial dilution with saline similar to blood bank protocols.

[7] = listed as 20% Glycerol with Control

SMILES | Hemolysis (%) Overall (red blood cells [3]) [%] | Hemolysis (%) Final (residual free hemoglobin) (red blood cells [3]) [%] | Hemolysis (%) Thaw (red blood cells [3]) [%] | % Hemolysis (level of thaw hemolysis) (red blood cells [4]) [%] | other results
OCC(O)CO [40% Glycerol, glycerol] | 14.1 | 0.45 | 2.01 | 1.91 | hemolysis during the wash procedure (red blood cells [1]): 10-15%; % Hemolysis Thaw (red blood cells [2]): 1.9%; % Hemolysis Overall (red blood cells [2]): 6.1%
OCC(O)CO [10% Glycerol, glycerol] | – | – | – | – | % Hemolysis Overall (red blood cells [5]; after glycerol removal by serial dilution with saline): 93.62 ± 1.28%; % Hemolysis Thaw (red blood cells [5]; frozen −80° C. 2-7 days, thawed 37° C. 10 minutes): 61.71 ± 1.26%
NC(=O)c1cccnc1 [Nicotinamide] | 22.93 | 0.43 | 8.13 | – | –
OCC(O)CO [30% Glycerol, glycerol] | – | – | – | 3.53 | –
OCC(O)CO [20% Glycerol, glycerol] | 41.48 | 1.09 | 9.39 | 35.29 | % Hemolysis Thaw (red blood cells [2]; [7]): 37.9%; % Hemolysis Overall (red blood cells [2]; [7]): 52.0%
C[S+](C)[O-] [DMSO, dimethyl sulfoxide] | – | – | – | – | % Hemolysis (red blood cells [6]): 23.17 ± 0.58%
